Laboratory results reported in paper PMC6407578, “Synthesis and biological evaluation of ursolic acid derivatives bearing triazole moieties as potential anti-Toxoplasma gondii agents” (Journal of Enzyme Inhibition and Medicinal Chemistry, 2019).
Like-named read-outs stand apart in the source and are kept apart here.

Tests used:
T. gondii = test system: T. gondii; parameters: method as in PMID 25288090; conditions: cited from earlier work
HeLa cells = assay: Cytotoxicity on HeLa host cells (MTT); format: cell-based; conditions: median toxicity dose, cytotoxicity against host cells, 24 h
Description: (§1) The cytotoxicity of compounds was determined using the previously published thiazolyl blue-based colorimetric method. For this, HeLa cells were used as host cells and their ability to resist invasion by T. gondii RH strain tachyzoites in vitro was checked. The cells were plated in 96-well plates at an appropriate density to ensure exponential growth throughout the experimental period (3 × 10^3 cells per well) and then allowed to adhere for 24 h at 37 °C. The cells were infected with T. gondii (1.5 × 10^4 tachyzoites/well), followed by incubation for 24 h. All compounds were prepared in dimethyl sulfoxide (DMSO) at a stock concentration of 100 mM. Serial dilutions (1–1000 μM) of each compound were tested. Spiramycin was used as a positive control. After 24 h of incubation, 10 μL of MTT solution were added to each well and cells were incubated for a further 2 h. The optical density (OD) was read on a microplate reader at a wavelength of 492 nm. The IC50 in HeLa cells, IC50 in T. gondii and selectivity index were calculated using Microsoft Excel.

[1] = test system: T. gondii RH strain tachyzoites; assay: In vitro T. gondii growth inhibition in HeLa host cells (MTT); format: cell-based, Toxoplasma gondii; conditions: for IC50: median inhibitory concentration, tachyzoite inhibition, HeLa host cells, 24 h; for SI (selectivity index): IC50 in HeLa cells/IC50 in T. gondii
Description: as §1

T. gondii tachyzoites = assay: In vivo anti-T. gondii activity, acute infection model in KM mice (intraperitoneal tachyzoite count); parameters: species or system Toxoplasma gondii; conditions: T. gondii-infected KM mice, 100 mg/kg by gavage once a day for 4 days; for inhibitory rate of tachyzoites: ascitic fluid; for Amount of tachyzoite: intraperitoneal tachyzoites
Description: (§2) Thirty female KM mice were used to establish an animal model of acute T. gondii infection. These were randomly divided into five groups: infected untreated, normal, infected with spiramycin treatment, infected with 1e treatment and infected with 3d treatment. Each group consisted of six mice. Four hours after infection, 100 mg/kg of the compounds was administered to the mice by gavage, once a day for 4 consecutive days, whereas the untreated group was administered the same dose of physiological saline. On the fifth day, blood from the eyes of mice was collected and they were sacrificed by cervical dislocation. Their abdominal cavity was rinsed with sterile physiological saline to collect the parasites/tachyzoites. These were counted under the light microscope, and the inhibition rate of parasites was calculated. The liver and spleen were dissected and liver and spleen indexes, serum alanine aminotransferase (ALT), aspartate aminotransferase (AST), and liver homogenate glutathione (GSH) and malonaldehyde (MDA) were determined.

[2] = Liver/spleen indexes, serum ALT/AST, liver MDA/GSH in T. gondii-infected KM mice; format: in vivo; conditions: 100 mg/kg; for GSH content (liver homogenate): compared to the untreated group; for spleen index: effect on the infection-induced increase, not statistically significant
Description: as §2

[3] = T. gondii-infected KM mice, compared with the untreated group

Row | Compound | IC50 (HeLa cells; Homo sapiens, HeLa) | IC50 ([1]; Toxoplasma gondii) | melting point | SI (selectivity index) [1] | inhibitory rate of tachyzoites (T. gondii tachyzoites) | Amount of tachyzoite (T. gondii tachyzoites) | also measured
1 | S=C1N=NC(c2cccs2)=N1 [compound 2, 3-(thiophen-2-yl)-1,2,4-triazole-5-thione] | – | – | – | – | – | – | selectivity value (T. gondii; 3[H]uracil incorporation method): 4.58; selectivity value (T. gondii; qRT-PCR): 5.21
2 | C[C@H]1[C@H](C)CC[C@]2(C(=O)OCC(=O)NCc3cn(-c4ccccc4)nn3)CC[C@]3(C)C(=CC[C@@H]4[C@@]5(C)CCC(O)C(C)(C)[C@@H]5CC[C@]43C)[C@H]12 (stereo partly drawn) [2a, (1S,2R,4aS,6aS,6bR,8aR,12aR,12bR,14bS)-2-oxo-2-((1-phenyl-1H-1,2,3-triazol-4-yl)methylamino)ethyl-10-hydroxy-1,2,6a,6b,9,9,12a-heptamethyl-1,2,3,4,4a,5,6,6a,6b,7,8,8a,9,10,11,12,12a,12b,13,14b-icosahydropicene-4a-carboxylate] | 837 µM | > 1000 µM | 170 to 172 °C | – | – | – | –
3 | C[C@H]1[C@H](C)CC[C@]2(C(=O)OCCn3cnnc3-c3ccc(Cl)cc3)CC[C@]3(C)C(=CC[C@@H]4[C@@]5(C)CCC(O)C(C)(C)[C@@H]5CC[C@]43C)[C@H]12 (stereo partly drawn) [3b, 2 –(3-(4-chlorophenyl)-4H-1,2,4-triazol-4-yl)ethyl(1S,2R,4aS,6aS,6bR,8aR,12aR,12bR,14bS)-10-hydroxy-1,2,6a,6b,9,9,12a-heptamethyl-1,3,4,5,6,6a,6b,7,8,8a,9,10,11,12,12a,12b,13,14b-octadecahydropicene-4a(2H)-carboxylate] | 2.4 µM | 6.7 µM | 245 to 246 °C | 0.36 | – | – | –
4 | COc1ccc(-c2nncn2CCOC(=O)[C@]23CC[C@@H](C)[C@H](C)[C@H]2C2=CC[C@@H]4[C@@]5(C)CCC(O)C(C)(C)[C@@H]5CC[C@@]4(C)[C@]2(C)CC3)cc1 (stereo partly drawn) [3e, 2 –(3-(4-methoxyphenyl)-4H-1,2,4-triazol-4-yl)ethyl(1S,2R,4aS,6aS,6bR,8aR,12aR,12bR,14bS)-10-hydroxy-1,2,6a,6b,9,9,12a-heptamethyl-1,3,4,5,6,6a,6b,7,8,8a,9,10,11,12,12a,12b,13,14b-octadecahydropicene-4a(2H)-carboxylate] | 78.2 µM | 116 µM | 233 to 235 °C | 0.67 | – | – | –
5 | C[C@H]1[C@H](C)CC[C@]2(C(=O)O)CC[C@]3(C)C(=CC[C@@H]4[C@@]5(C)C/C(=C\c6cn(-c7ccccc7Cl)nn6)C(=O)C(C)(C)[C@@H]5CC[C@]43C)[C@H]12 [1e, (1S,2R,4aS,6aS,6bR,8aR,12aR,12bR,14bS,E)-11-((1–(2-chlorophenyl)-1H-1,2,3-triazol-4-yl)methylene)-1,2,6a,6b,9,9,12a-heptamethyl-10-oxo-1,3,4,5,6,6a,6b,7,8,8a,9,10,11,12,12a,12b,13,14b-octadecahydropicene-4a(2H)-carboxylic acid] | 466 µM | 240 µM | – | 1.95 | 37.0% | 141.8 ×10^4 | GSH content (liver homogenate) ([2]; T. gondii-infected KM mice): significantly increase; serum ALT and AST levels [2, 3]: striking reduction
6 | C[C@H]1[C@H](C)CC[C@]2(C(=O)O)CC[C@]3(C)C(=CC[C@@H]4[C@@]5(C)C/C(=C\c6cn(-c7cccc(F)c7)nn6)C(=O)C(C)(C)[C@@H]5CC[C@]43C)[C@H]12 [1c, (1S,2R,4aS,6aS,6bR,8aR,12aR,12bR,14bS,E)-11-((1–(3-fluorophenyl)-1H-1,2,3-triazol-4-yl)methylene)-1,2,6a,6b,9,9,12a-heptamethyl-10-oxo-1,3,4,5,6,6a,6b,7,8,8a,9,10,11,12,12a,12b,13,14b-octadecahydropicene-4a(2H)-carboxylic acid] | > 1000 µM | > 1000 µM | > 250 °C | – | – | – | –
7 | C[C@H]1[C@H](C)CC[C@]2(C(=O)OCCn3cnnc3-c3ccc([N+](=O)[O-])cc3)CC[C@]3(C)C(=CC[C@@H]4[C@@]5(C)CCC(O)C(C)(C)[C@@H]5CC[C@]43C)[C@H]12 (stereo partly drawn) [3d, 2 –(3-(4-nitrophenyl)-4H-1,2,4-triazol-4-yl)ethyl(1S,2R,4aS,6aS,6bR,8aR,12aR,12bR,14bS)-10-hydroxy-1,2,6a,6b,9,9,12a-heptamethyl-1,3,4,5,6,6a,6b,7,8,8a,9,10,11,12,12a,12b,13,14b-octadecahydropicene-4a(2H)-carboxylate] | 227 µM | 128 µM | – | 1.77 | 70.4% | 66.6 ×10^4 | GSH content (liver homogenate) ([2]; T. gondii-infected KM mice): significantly increase; levels of MDA (liver homogenate) [2, 3]: significantly decreased; serum ALT and AST levels [2, 3]: striking reduction; spleen index ([2]; T. gondii-infected KM mice): subjugated
8 | Spiramycin [reference compound] | – | – | – | 0.72 | 56.8% | 97.2 ×10^4 | IC50 (HeLa cells): 189 µM; IC50 [1]: 262 µM; levels of MDA (liver homogenate) [2, 3]: significantly decreased; spleen index ([2]; T. gondii-infected KM mice): subjugated
9 | COc1ccc(-n2cc(CNC(=O)COC(=O)[C@]34CC[C@@H](C)[C@H](C)[C@H]3C3=CC[C@@H]5[C@@]6(C)CCC(O)C(C)(C)[C@@H]6CC[C@@]5(C)[C@]3(C)CC4)nn2)cc1 (stereo partly drawn) [2c, (1S,2R,4aS,6aS,6bR,8aR,12aR,12bR,14bS)-2-((1–(4-methoxyphenyl)-1H-1,2,3-triazol-4-yl)methylamino)-2-oxoethyl-10-hydroxy-1,2,6a,6b,9,9,12a-heptamethyl-1,2,3,4,4a,5,6,6a,6b,7,8,8a,9,10,11,12,12a,12b,13,14b-icosahydropicene-4a-carboxylate] | > 1000 µM | > 1000 µM | 180 to 181 °C | – | – | – | –
10 | C[C@H]1[C@H](C)CC[C@]2(C(=O)O)CC[C@]3(C)C(=CC[C@@H]4[C@@]5(C)C/C(=C\c6cn(-c7ccccc7F)nn6)C(=O)C(C)(C)[C@@H]5CC[C@]43C)[C@H]12 [1b, (1S,2R,4aS,6aS,6bR,8aR,12aR,12bR,14bS,E)-11-((1–(2-fluorophenyl)-1H-1,2,3-triazol-4-yl)methylene)-1,2,6a,6b,9,9,12a-heptamethyl-10-oxo-1,3,4,5,6,6a,6b,7,8,8a,9,10,11,12,12a,12b,13,14b-octadecahydropicene-4a(2H)-carboxylic acid] | 420 µM | 712 µM | > 250 °C | 0.59 | – | – | –
11 | C[C@H]1[C@H](C)CC[C@]2(C(=O)O)CC[C@]3(C)C(=CC[C@@H]4[C@@]5(C)C/C(=C\c6cn(-c7ccccc7)nn6)C(=O)C(C)(C)[C@@H]5CC[C@]43C)[C@H]12 [1a, (1S,2R,4aS,6aS,6bR,8aR,12aR,12bR,14bS,E)-1,2,6a,6b,9,9,12a-heptamethyl-10-oxo-11-((1-phenyl-1H-1,2,3-triazol-4-yl)methylene)-1,3,4,5,6,6a,6b,7,8,8a,9,10,11,12,12a,12b,13,14b-octadecahydropicene-4a(2H)-carboxylic acid] | > 1000 µM | > 1000 µM | > 250 °C | – | – | – | –
12 | C[C@H]1[C@H](C)CC[C@]2(C(=O)O)CC[C@]3(C)C(=CC[C@@H]4[C@@]5(C)CC[C@H](O)C(C)(C)[C@@H]5CC[C@]43C)[C@H]12 [Ursolic Acid, Ursolic acid] | 44.8 µM | 72.2 µM | – | 0.62 | 65.4% | 77.9 ×10^4 | levels of MDA (liver homogenate) [2, 3]: significantly decreased; spleen index ([2]; T. gondii-infected KM mice): subjugated; serum ALT and AST levels ([2]; mouse, in vivo): striking reduction
